Test results taken from patent publication US20230085307A1, “PYRIDAZINONE COMPOUND AND HERBICIDE” (NISSAN CHEMICAL CORPORATION, priority 2019, published 2023).

Legend:
[1] = tested on: persian speedwell; test: Test Example 4: herbicidal effect by soil treatment (Table 19, symbol R); type: in vivo, Persian speedwell (Veronica persica); conditions: 320 g/ha
How it was run: (§1)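 In this soil treatment, the formulated compound reached the seeds only through the soil: seeds were buried about 1.5 cm deep in sterilized diluvial soil, then the diluted emulsion was sprayed over the surface. After three weeks at 25° C. to 30° C. in a greenhouse, effects were graded on criteria from an earlier test.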

[2] = tested on: barnyard grass; test: Test Example 3: herbicidal effect by foliage application, Wagner pot (Table 18, symbol H); type: in vivo, barnyard grass (Echinochloa crus-galli); conditions: 320 g/ha
How it was run: (§2)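 Plants were sown in alluvial soil held under 0.1–0.5 cm standing water and grown 14 days in a greenhouse at 25–30 °C. An emulsifiable formulation, water-diluted to the set dose, was then sprayed onto the foliage, and effects were scored three weeks later using previously defined criteria.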

[3] = tested on: wild oat; test: Test Example 4: herbicidal effect by soil treatment (Table 19, symbol I); type: in vivo, wild oat (Avena fatua); conditions: 320 g/ha
How it was run: as §1

[4] = tested on: wild oat; test: Test Example 5: herbicidal effect by foliage application, plastic box (Table 20, symbol I); type: in vivo, wild oat (Avena fatua); conditions: foliage application, 320 g/ha, 3 weeks after application
How it was run: (§3)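 Plants were sown into sterilized diluvial soil under about 1.5 cm cover and kept in a greenhouse at 25° C. to 30° C. Fourteen days on, foliage received an even spray of the diluted emulsion. Herbicidal or crop effect was judged three weeks afterwards.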

[5] = tested on: late watergrass; test: Test Example 1: herbicidal activity, application before weed generation under submerged conditions (Table 16, symbol A); type: in vivo, late watergrass (Echinochloa oryzicola); conditions: 320 g/ha applied herbicide
How it was run: (§4)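 Emulsion formulation, water-diluted to set dose, was put onto the flooded surface (4 cm depth, alluvial soil) the same day weeds were sown and 2.5-leaf rice transplanted. After 3 weeks at 25-30 °C under glass, each species was rated 0 (≤5% kill) to 5 (≥90% kill).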

[6] = tested on: chickweed; test: Test Example 4: herbicidal effect by soil treatment (Table 19, symbol P); type: in vivo, common chickweed (Stellaria media); conditions: 320 g/ha
How it was run: as §1

[7] = tested on: velvetleaf; test: Test Example 5: herbicidal effect by foliage application, plastic box (Table 20, symbol M); type: in vivo, velvetleaf (Abutilon theophrasti); conditions: foliage application, 320 g/ha, 3 weeks after application
How it was run: as §3

[8] = tested on: blackgrass; test: Test Example 5: herbicidal effect by foliage application, plastic box (Table 20, symbol J); type: in vivo, blackgrass (Alopecurus myosuroides); conditions: foliage application, 320 g/ha, 3 weeks after application
How it was run: as §3

[9] = tested on: windgrass; test: Test Example 4: herbicidal effect by soil treatment (Table 19, symbol L); type: in vivo, windgrass (Apera spica-venti); conditions: 320 g/ha
How it was run: as §1

[10] = tested on: persian speedwell; test: Test Example 5: herbicidal effect by foliage application, plastic box (Table 20, symbol R); type: in vivo, Persian speedwell (Veronica persica); conditions: foliage application, 320 g/ha, 3 weeks after application
How it was run: as §3

[11] = tested on: green foxtail; test: Test Example 5: herbicidal effect by foliage application, plastic box (Table 20, symbol G); type: in vivo, green foxtail (Setaria viridis); conditions: foliage application, 320 g/ha, 3 weeks after application
How it was run: as §3

[12] = tested on: oval-leafed pondweed; test: Test Example 1: herbicidal activity, application before weed generation under submerged conditions (Table 16, symbol C); type: in vivo, oval-leafed pondweed (Monochoria vaginalis); conditions: 320 g/ha applied herbicide
How it was run: as §4

[13] = tested on: velvetleaf; test: Test Example 4: herbicidal effect by soil treatment (Table 19, symbol M); type: in vivo, velvetleaf (Abutilon theophrasti); conditions: 320 g/ha
How it was run: as §1

[14] = tested on: Italian ryegrass; test: Test Example 5: herbicidal effect by foliage application, plastic box (Table 20, symbol K); type: in vivo, Italian ryegrass (Lolium multiflorum); conditions: foliage application, 320 g/ha, 3 weeks after application
How it was run: as §3

[15] = tested on: barnyard grass; test: Test Example 5: herbicidal effect by foliage application, plastic box (Table 20, symbol H); type: in vivo, barnyard grass (Echinochloa crus-galli); conditions: foliage application, 320 g/ha, 3 weeks after application
How it was run: as §3

[16] = tested on: redroot pigweed; test: Test Example 4: herbicidal effect by soil treatment (Table 19, symbol N); type: in vivo, redroot pigweed (Amaranthus retroflexus); conditions: 320 g/ha
How it was run: as §1

[17] = tested on: blackgrass; test: Test Example 4: herbicidal effect by soil treatment (Table 19, symbol J); type: in vivo, blackgrass (Alopecurus myosuroides); conditions: 320 g/ha
How it was run: as §1

[18] = tested on: Italian ryegrass; test: Test Example 4: herbicidal effect by soil treatment (Table 19, symbol K); type: in vivo, Italian ryegrass (Lolium multiflorum); conditions: 320 g/ha
How it was run: as §1

[19] = tested on: Japanese bulrush; test: Test Example 1: herbicidal activity, application before weed generation under submerged conditions (Table 16, symbol B); type: in vivo, Japanese bulrush (Schoenoplectus juncoides); conditions: 320 g/ha applied herbicide
How it was run: as §4

[20] = tested on: barnyard grass; test: Test Example 4: herbicidal effect by soil treatment (Table 19, symbol H); type: in vivo, barnyard grass (Echinochloa crus-galli); conditions: 320 g/ha
How it was run: as §1

[21] = tested on: green foxtail; test: Test Example 4: herbicidal effect by soil treatment (Table 19, symbol G); type: in vivo, green foxtail (Setaria viridis); conditions: 320 g/ha
How it was run: as §1

[22] = tested on: southern crabgrass; test: Test Example 4: herbicidal effect by soil treatment (Table 19, symbol F); type: in vivo, southern crabgrass (Digitaria ciliaris); conditions: 320 g/ha
How it was run: as §1

[23] = tested on: lambsquarters; test: Test Example 5: herbicidal effect by foliage application, plastic box (Table 20, symbol O); type: in vivo, lambsquarters (Chenopodium album); conditions: foliage application, 320 g/ha, 3 weeks after application
How it was run: as §3

[24] = tested on: lambsquarters; test: Test Example 4: herbicidal effect by soil treatment (Table 19, symbol O); type: in vivo, lambsquarters (Chenopodium album); conditions: 320 g/ha
How it was run: as §1

[25] = tested on: windgrass; test: Test Example 5: herbicidal effect by foliage application, plastic box (Table 20, symbol L); type: in vivo, windgrass (Apera spica-venti); conditions: foliage application, 320 g/ha, 3 weeks after application
How it was run: as §3

[26] = tested on: Chinese sprangletop; test: Test Example 3: herbicidal effect by foliage application, Wagner pot (Table 18, symbol D); type: in vivo, chinese sprangletop (Leptochloa chinensis); conditions: 320 g/ha
How it was run: as §2

[27] = tested on: rice flat sedge; test: Test Example 3: herbicidal effect by foliage application, Wagner pot (Table 18, symbol E); type: in vivo, rice flat sedge (Cyperus iria); conditions: 320 g/ha
How it was run: as §2

[28] = tested on: southern crabgrass; test: Test Example 5: herbicidal effect by foliage application, plastic box (Table 20, symbol F); type: in vivo, southern crabgrass (Digitaria ciliaris); conditions: foliage application, 320 g/ha, 3 weeks after application
How it was run: as §3

Structure (SMILES) | herbicidal effect rating, R: persian speedwell [1] | herbicidal effect on H (barnyard grass), rating 0-5 [2] | herbicidal effect rating, I: wild oat [3] | effect on wild oat (I) [4] | Herbicidal effect on A: late watergrass (grade 0-5) [5] | herbicidal effect rating, P: chickweed [6] | effect on velvetleaf (M) [7] | effect on blackgrass (J) [8] | herbicidal effect rating, L: windgrass [9] | effect on persian speedwell (R) [10] | effect on green foxtail (G) [11] | Herbicidal effect on C: oval-leafed pondweed (grade 0-5) [12] | herbicidal effect rating, M: velvetleaf [13] | effect on Italian ryegrass (K) [14] | effect on barnyard grass (H) [15] | herbicidal effect rating, N: redroot pigweed [16] | herbicidal effect rating, J: blackgrass [17] | herbicidal effect rating, K: Italian ryegrass [18] | Herbicidal effect on B: Japanese bulrush (grade 0-5) [19] | herbicidal effect rating, H: barnyard grass [20] | also measured
Cc1nn(C)c(=O)c(-c2c(-c3ccc(F)cc3)sc3ccc(F)cc23)c1OC(=O)c1ccccc1Cl [2-005] | 3 (Herbicidal rate of 40% or more and less than 70%) | 5 (Herbicidal rate of 90% or more (almost completely withered)) | 0 (Herbicidal rate of 5% or less (almost no effect)) | 0 (Herbicidal rate of 5% or less (almost no effect)) | 0 (Herbicidal rate of 5% or less (almost no effect)) | 4 (Herbicidal rate of 70% or more and less than 90%) | 4 (Herbicidal rate of 70% or more and less than 90%) | 3 (Herbicidal rate of 40% or more and less than 70%) | 0 (Herbicidal rate of 5% or less (almost no effect)) | 4 (Herbicidal rate of 70% or more and less than 90%) | 5 (Herbicidal rate of 90% or more (almost completely withered)) | 2 (Herbicidal rate of 20% or more and less than 40%) | 4 (Herbicidal rate of 70% or more and less than 90%) | 4 (Herbicidal rate of 70% or more and less than 90%) | 4 (Herbicidal rate of 70% or more and less than 90%) | 4 (Herbicidal rate of 70% or more and less than 90%) | 0 (Herbicidal rate of 5% or less (almost no effect)) | 4 (Herbicidal rate of 70% or more and less than 90%) | 2 (Herbicidal rate of 20% or more and less than 40%) | 4 (Herbicidal rate of 70% or more and less than 90%) | herbicidal effect rating, G: green foxtail [21]: 5 (Herbicidal rate of 90% or more (almost completely withered)); herbicidal effect rating, F: southern crabgrass [22]: 5 (Herbicidal rate of 90% or more (almost completely withered)); effect on lambsquarters (O) [23]: 3 (Herbicidal rate of 40% or more and less than 70%); herbicidal effect rating, O: lambsquarters [24]: 4 (Herbicidal rate of 70% or more and less than 90%); effect on windgrass (L) [25]: 0 (Herbicidal rate of 5% or less (almost no effect)); herbicidal effect on D (Chinese sprangletop), rating 0-5 [26]: 3 (Herbicidal rate of 40% or more and less than 70%); herbicidal effect on E (rice flat sedge), rating 0-5 [27]: 5 (Herbicidal rate of 90% or more (almost completely withered)); effect on southern crabgrass (F) [28]: 5 (Herbicidal rate of 90% or more (almost completely withered))
CCCC(=O)Oc1c(C)nn(C)c(=O)c1-c1c(-c2ccc(C(C)(C)C)cc2)sc2ccc(F)cc12 [2-017] | 0 (Herbicidal rate of 5% or less (almost no effect)) | 5 (Herbicidal rate of 90% or more (almost completely withered)) | 0 (Herbicidal rate of 5% or less (almost no effect)) | 0 (Herbicidal rate of 5% or less (almost no effect)) | 2 (Herbicidal rate of 20% or more and less than 40%) | 0 (Herbicidal rate of 5% or less (almost no effect)) | 1 (Herbicidal rate of 5% or more and less than 20%) | 0 (Herbicidal rate of 5% or less (almost no effect)) | 0 (Herbicidal rate of 5% or less (almost no effect)) | 3 (Herbicidal rate of 40% or more and less than 70%) | 1 (Herbicidal rate of 5% or more and less than 20%) | 0 (Herbicidal rate of 5% or less (almost no effect)) | 0 (Herbicidal rate of 5% or less (almost no effect)) | 0 (Herbicidal rate of 5% or less (almost no effect)) | 3 (Herbicidal rate of 40% or more and less than 70%) | 4 (Herbicidal rate of 70% or more and less than 90%) | 0 (Herbicidal rate of 5% or less (almost no effect)) | 0 (Herbicidal rate of 5% or less (almost no effect)) | 0 (Herbicidal rate of 5% or less (almost no effect)) | 2 (Herbicidal rate of 20% or more and less than 40%) | herbicidal effect rating, G: green foxtail [21]: 1 (Herbicidal rate of 5% or more and less than 20%); herbicidal effect rating, F: southern crabgrass [22]: 0 (Herbicidal rate of 5% or less (almost no effect)); effect on lambsquarters (O) [23]: 1 (Herbicidal rate of 5% or more and less than 20%); herbicidal effect rating, O: lambsquarters [24]: 2 (Herbicidal rate of 20% or more and less than 40%); effect on windgrass (L) [25]: 0 (Herbicidal rate of 5% or less (almost no effect)); herbicidal effect on D (Chinese sprangletop), rating 0-5 [26]: 3 (Herbicidal rate of 40% or more and less than 70%); herbicidal effect on E (rice flat sedge), rating 0-5 [27]: 2 (Herbicidal rate of 20% or more and less than 40%); effect on southern crabgrass (F) [28]: 0 (Herbicidal rate of 5% or less (almost no effect))
